Values after ≈ are worked out from the molar mass of the structure shown. Read-outs that look alike come from different tables or passages of the source.
Experiments:
[1] = test system: E. coli ATCC 25922 (AECO001); experiment: MIC, CLSI broth microdilution; type: cell-based; details: for MIC: Escherichia coli
Outline: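 Test compounds were diluted two-fold at 2× strength in Mueller Hinton Broth, then combined 1:1 with saline-suspended bacteria from an overnight agar colony to reach 5×10^5 CFU/mL. Incubation followed at 35° C. for 20 hours in ambient air, per CLSI reference methods.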

[2] = test system: E. coli, Klebsiella spp., Enterobacter spp. and Citrobacter spp.; experiment: MIC, urinary tract infection isolates; type: cell-based; details: Escherichia coli, range among E. coli
Description: (§1) Minimum inhibitory concentrations (MIC) were determined by reference Clinical and Laboratory Standards Institute (CLSI) broth microdilution methods per M7-A7 [2006]. Quality control ranges utilizing E. coli ATCC 25922, P. aeruginosa ATCC 27853 and S. aureus ATCC 29213, and interpretive criteria for comparator agents were as published in CLSI M100-S17 [2007]. Briefly, serial two-fold dilutions of the test compounds were prepared at 2× concentration in Mueller Hinton Broth. The compound dilutions were mixed in 96-well assay plates in a 1:1 ratio with bacterial inoculum. The inoculum was prepared by suspension of a colony from an agar plate that was prepared the previous day. Bacteria were suspended in sterile saline and added to each assay plate to obtain a final concentration of 5×10^5 CFU/mL. The plates were incubated at 35° C. for 20 hours in ambient air.
(§2) In order to determine the activity of representative antibacterial aminoglycoside compounds against bacterial species that commonly cause complicated urinary tract infections worldwide, isolates were collected from 47 medical centers in the U.S. and Europe (10 countries) from urine or blood culture with the source of bacteremia documented as a urinary tract infection. Strains were susceptibility tested against Example 1, gentamicin, amikacin and 10 comparators by CLSI broth microdilution. These MIC assays were conducted following the same protocol as set forth in Example 110. Pathogens (169 in total) included E. coli, Klebsiella spp., Enterobacter spp., Citrobacter spp., P. mirabilis, M. Morganii, P. aeruginosa, S. aureus and S. saprophyticus.

P. aeruginosa (19) = experiment: MIC, urinary tract infection isolates; type: cell-based; details: Pseudomonas aeruginosa; P. aeruginosa isolates
Description: as §1, §2

[3] = test system: P. mirabilis and M. morganii; experiment: MIC, urinary tract infection isolates; type: cell-based
Description: as §1, §2

S. aureus (23) = experiment: MIC, urinary tract infection isolates; type: cell-based; details: Staphylococcus aureus; S. aureus isolates, including 43.5% oxacillin-resistant strains
Description: as §1, §2

S. saprophyticus (19) = experiment: MIC, urinary tract infection isolates; type: cell-based; details: Staphylococcus saprophyticus; S. saprophyticus isolates
Description: as §1, §2

E. coli AECO 1003, MDR = experiment: Murine neutropenic thigh model; type: in vivo
Description: Activity is presented as the log10 difference in CFU/thigh after 24 hours of antibiotic treatment compared to CFU/thigh just prior to antibiotic treatment (2 hours post-infection). Total dose per 24 hours is shown; dosing was q12 hours. 6 mice per group. Inoculum=1.5×10^3 CFU.
(§3) The in vivo activity of Example 1 in the mouse neutropenic thigh model (Andes and Craig. Antimicrob Agents Chemother. 2002, 46:1665-1670) was determined against seven bacterial strains including susceptible Escherichia coli and Klebsiella pneumoniae; multi-drug resistant (MDR) clinical isolates of E. coli and K. pneumoniae that display resistance to multiple antibiotics (including AGs); MRSA; and two K. pneumoniae carbapenemases (KPC)-expressing strains (see Table 5). For this efficacy model, groups of six CD-1 mice were rendered neutropenic by two intraperitoneal injections of cyclophosphamide. The first injection was 150 mg/kg three days prior to infection (day −4), and the second injection was 100 mg/kg one day prior to infection (day −1). On study day 0, animals were inoculated intramuscularly (0.1 ml) with a known number of colony forming units (CFU) of the specified bacterial strain (ATCC 25922, AECO 1003, ATCC 43816, AKPN 1073, AKPN 1109, ATCC 33591 or ASMA 1030), tailored to the virulence of each strain in the model to maximize bacterial load while avoiding mortality in the untreated control arms. Antibiotics were administered via subcutaneous injection at 2 and 14 hours after bacterial challenge. At 26 hours, infected thigh tissue was harvested, homogenized, and plated to count CFU. Untreated control animals were harvested at 2 hours post-infection to assess the initial bacterial load and at 26 hours post-infection to measure growth in the absence of antibiotic treatment.

[4] = test system: K. pneumoniae AKPN 1073, MDR; experiment: Murine neutropenic thigh model; type: in vivo
Description: FIG. 2 is a line graph showing dose-responses of Example 1, gentamicin, and imipenem (positive control) in a murine neutropenic thigh model against an AG-resistant clinical isolate of K. pneumoniae (AKPN 1073). Activity is presented as the log10 difference in CFU/thigh after 24 hours of antibiotic treatment compared to CFU/thigh just prior to antibiotic treatment (2 hours post-infection). Total dose per 24 hours is shown; dosing was q12 hours. 6 mice per group. Inoculum=1.3×10^4 CFU.
as §3

[5] = test system: K. pneumoniae AKPN 1109, KPC; experiment: Murine neutropenic thigh model; type: in vivo
Description: Activity is presented as the log10 difference in CFU/thigh after 24 hours of antibiotic treatment compared to CFU/thigh just prior to antibiotic treatment (2 hours post-infection). Total dose per 24 hours is shown; dosing was q12 hours. 6 mice per group, Inoculum=8.3×10^5 CFU.
as §3

[6] = test system: S. aureus ATCC 33591, MRSA; experiment: Murine neutropenic thigh model; type: in vivo
Description: FIG. 4 is a line graph showing dose-responses of Example 1, arbekacin, gentamicin, vancomycin, and daptomycin in a murine neutropenic thigh model against an MRSA (ATCC 33591). Activity is presented as the log10 difference in CFU/thigh after 24 hours of antibiotic treatment compared to CFU/thigh just prior to antibiotic treatment (2 hours post-infection). Total dose per 24 hours is shown; dosing was q12 hours. 6 mice per group, Inoculum=1.2×10^3 CFU.
as §3

[7] = test system: E. coli ATCC 25922, Susceptible; experiment: Murine neutropenic thigh model; type: in vivo
Description: as §3

[8] = test system: K. pneumoniae ATCC 43816, Susceptible; experiment: Murine neutropenic thigh model; type: in vivo
Description: as §3

[9] = test system: S. marcescens ASMA 1030, KPC; experiment: Murine neutropenic thigh model; type: in vivo
Description: as §3

## CN[C@@H]1[C@@H](O)[C@@H](O[C@@H]2[C@@H](O)[C@H](O[C@H]3OC(CNCCO)=CC[C@H]3N)[C@@H](N)C[C@H]2NC(=O)[C@@H](O)CCN)OC[C@]1(C)O [Example 1, 6′-(2-Hydroxy-ethyl)-1-(4-amino-2(S)-hydroxy-butyryl)-sisomicin]
[1]; ATCC25922, Table 2, read-out: MIC E. coli
  MIC: < 1 µg/mL
[1]; ATCC25922, Table 5, E. coli Susceptible ATCC 25922, read-out: MIC
  MIC: 1 µg/mL (≈ 1.69 µM)
[1]; Table 1, AECO001 is ATCC25922, read-out: MIC AECO001
  MIC: < 1 µg/mL
[1]; Table 3, ATCC25922
  MIC AECO001: 0.5 µg/mL (≈ 0.844 µM)
[2]
  MIC90: 0.5 to 2 µg/mL (≈ 0.844 to 3.37 µM)
P. aeruginosa (19)
  MIC90: 16 µg/mL (≈ 27 µM)
[3]
  MIC90: 4 to 8 µg/mL (≈ 6.75 to 13.5 µM)
S. aureus (23)
  MIC90: 2 µg/mL (≈ 3.37 µM)
S. saprophyticus (19)
  MIC50: ≤ 0.25 µg/mL
  MIC90: 0.5 µg/mL (≈ 0.844 µM)
E. coli AECO 1003, MDR; E. coli AECO 1003
  ED50/MIC: 14.6
E. coli AECO 1003, MDR; Escherichia coli, sc, neutropenic CD-1 mice, subcutaneous at 2 and 14 hours, E. coli AECO 1003
  ED50: 14.6 mg/kg
E. coli AECO 1003, MDR; highest dosage, challenge 1.5×10^3 CFU AECO 1003, FIG. 1
  bacterial titer after 24 hours of treatment versus initial bacterial load at 2 hours post-inoculation: reduced to below the initial bacterial load
[4]; K. pneumoniae AKPN 1073
  ED50/MIC: 6.6
[4]; Klebsiella pneumoniae, sc, neutropenic CD-1 mice, subcutaneous at 2 and 14 hours, K. pneumoniae AKPN 1073
  ED50: 3.3 mg/kg
[4]; two highest dosages, challenge 1.3×10^4 CFU AKPN 1073, FIG. 2
  bacterial load after 24 hours of treatment versus initial bacterial load at 2 hours post-inoculation: reduced to below the level of the initial bacterial load
[5]; K. pneumoniae AKPN 1109
  ED50/MIC: 18-37
[5]; Klebsiella pneumoniae, sc, neutropenic CD-1 mice, subcutaneous at 2 and 14 hours, K. pneumoniae AKPN 1109
  ED50: 9.2 mg/kg
[5]; highest test dosage, challenge 8.3×10^5 CFU AKPN 1109, FIG. 3
  bacterial load after 24 hours of treatment versus initial bacterial load at 2 hours post-inoculation: reduced back to the level of the initial bacterial load
[6]; S. aureus ATCC 33591
  ED50/MIC: 4.8-9.7
[6]; Staphylococcus aureus, sc, neutropenic CD-1 mice, subcutaneous at 2 and 14 hours, S. aureus ATCC 33591
  ED50: 38.7 mg/kg
[6]; two highest dosages, challenge 1.2×10^3 CFU ATCC 33591, FIG. 4
  bacterial load after 24 hours of treatment versus initial bacterial load at 2 hours post-inoculation: reduced to below the initial bacterial load
[7]
  ED50/MIC: 8.4
[7]; Escherichia coli, ATCC25922, sc, neutropenic CD-1 mice, subcutaneous at 2 and 14 hours
  ED50: 8.4 mg/kg
[8]
  ED50/MIC: 7.4
[8]; Klebsiella pneumoniae, ATCC43816, sc, neutropenic CD-1 mice, subcutaneous at 2 and 14 hours
  ED50: 3.7 mg/kg
[9]
  ED50/MIC: 16.5
[9]; Serratia marcescens, sc, neutropenic CD-1 mice, subcutaneous at 2 and 14 hours
  ED50: 16.5 mg/kg
